pEC50: −log10 of the molar value. The source made the active and inactive calls. The rule behind the calls is not given here.

The experiment addresses CRF-binding protein / CRF-R2 receptor complex (human). As to the kind of experiment: activators of CRF-R2 paired with CRF-BP – cell-based, 384-well, SAR follow-up (AID 651648). As to conditions: cells expressing CRF-BP/CRF-R2 complex, agonist read-out.
In the case of `CSCCC(NC(=O)c1ccco1)C(=O)OC(C)C(=O)NC(=O)NC1CCCCC1` (centres undefined), the pEC50 is 5.79.

Turning to `Cc1cccc(Oc2ccc(NC(=O)c3ccccc3C(=O)O)cc2)c1C`, the EC50 is > 20 µM (inactive).

With `CCOc1ccccc1N(CC(=O)N1CCOCC1)S(=O)(=O)c1ccc(F)cc1`, the negative logarithm of the EC50 (pEC50) is 5.42.

For the compound `COc1ccc(CCn2c(C(C)C)nc3c(c(=O)c4ccccc4n3C)c2=O)cc1`, the EC50 is > 20 µM (inactive).

As to `Cc1cc(NC(=O)COC(=O)[C@H](Cc2ccccc2)NC(=O)c2ccco2)no1`, the pEC50 is 5.25.

Consider `CCOc1ccc(N(CC(=O)N2CCOCC2)S(=O)(=O)c2ccc(OC)cc2)cc1`, for which the EC50 is > 20 µM (inactive).

For the compound `CCOc1ccccc1N(CC(=O)N1CCOCC1)S(=O)(=O)c1ccc(OC)cc1OC`, the EC50 is > 20 µM (inactive).

Take `O=C(O)CCNc1nc(-c2ccccc2)c2cc(Br)ccc2n1`: the EC50 was > 20 µM (inactive).

With `Cc1ccc2oc(=O)c(/C=C(\O)c3sc(C)nc3C)nc2c1`, the EC50 is > 20 µM (inactive).

Regarding `CCOc1ccc(N(CC(=O)N2CCOCC2)S(=O)(=O)c2ccccc2)cc1`, the EC50 was > 20 µM (inactive).

For `CC(Oc1ccc(Br)cc1)C(=O)N1CCc2ccccc21` (centres undefined), the EC50 is > 20 µM (inactive).

Regarding `CC(=O)Nc1ccc(Sc2ncccc2C(=O)Nc2cc(C)cc(C)c2)cn1`, the EC50 is > 20 µM (inactive).

Turning to `CCOc1ccccc1N(CC(=O)N1CCOCC1)S(=O)(=O)c1ccc(Br)cc1OC(F)(F)F`, the pEC50 was 5.15.

With `CSCCC(NC(=O)c1ccco1)C(=O)N1CC=C(c2ccccc2)CC1` (centres undefined), the pEC50 was 4.87.

In the case of `CCOc1ccc(N(CC(=O)N2CCOCC2)S(=O)(=O)c2ccc(C)cc2)cc1`, the EC50 is > 20 µM (inactive).

For `Cc1cc(S(=O)(=O)c2cc3ccc(O)c(C)c3oc2=O)ccc1F`, the pEC50 was 5.64.

Consider `CCOC(=O)N1CCN(C(=O)c2c[nH]c3ccc(S(=O)(=O)N(C)c4cccc(C)c4)cc3c2=O)CC1`, for which the negative logarithm of the EC50 (pEC50) was 5.60.

As for `O=C(Nc1cc(Cl)cc(Cl)c1)c1coc(=O)c(Br)c1`, the EC50 was > 20 µM (inactive).

Turning to `COc1ccc(CN2CCCCC2C)cc1C` (centres undefined), the EC50 was > 20 µM (inactive).

`COc1ccc(C(=O)CSc2nnn(-c3cccc(NC(C)=O)c3)n2)cc1`: the EC50 is > 20 µM (inactive).

Consider `Cc1ccc(S(=O)(=O)NCC(=O)N(CC(=O)NCc2ccco2)Cc2ccccc2)cc1`, for which the pEC50 is 5.17.

As to `Cc1c(-n2cc(C(=O)c3ccccc3O)cc(C#N)c2=O)c(=O)n(-c2ccccc2)n1C`, the EC50 is > 20 µM (inactive).

On to `Cc1sc(NC(=O)C2CCCCC2C(=O)O)c(C(N)=O)c1-c1ccc(C(C)(C)C)cc1` (centres undefined), for which the pEC50 is 5.02.

Regarding `CC1(C)CSC(=NCc2ccccc2)N1`, the pEC50 was 5.11.

Regarding `CCc1nc2c(c(=O)c3ccccc3n2C)c(=O)n1C1CCCCCC1`, the pEC50 is 5.33.

Regarding `Cc1ccc2nc(NCCC(=O)O)nc(-c3ccccc3)c2c1`, the EC50 is > 20 µM (inactive).

`CCCCCCc1cc2cc(C(=O)NCc3ccccc3)c(=N)oc2cc1O`: the EC50 is > 20 µM (inactive).

For `CC(=O)Nc1ccc(Sc2ncccc2C(=O)Nc2ccc(F)cc2)cc1`, the EC50 is > 20 µM (inactive).

`Cc1nc2c(c(=O)c3ccccc3n2C)c(=O)n1C1CCCCCC1`: the EC50 was > 20 µM (inactive).

In the case of `O=C(Nc1ccc(SC(F)F)cc1)c1ccc2c(=O)n3c(nc2c1)CCC3`, the EC50 was > 20 µM (inactive).

In the case of `CCOc1ccccc1N(CC(=O)N1CCOCC1)S(=O)(=O)c1cccc(F)c1`, the pEC50 is 5.32.

`CCOC(=O)c1sc(NC(=O)c2cc(-c3ccccc3)nc3ccccc23)c(C#N)c1C`: the EC50 is > 20 µM (inactive).

In the case of `CC(=O)Nc1ccc(Sc2ncccc2C(=O)Nc2ccccc2F)cc1`, the EC50 is > 20 µM (inactive).

In the case of `CCOc1cccc(N(CC(=O)N2CCOCC2)S(=O)(=O)c2ccccc2)c1`, the EC50 was > 20 µM (inactive).

For `O=C(O)c1cc(Cl)ccc1-c1ccc(/C=C/c2cc(C(F)(F)F)[nH]c(=O)n2)o1`, the pEC50 was 5.27.

As for `O=c1c(/C=C(\O)c2ccc(F)cc2)nc2ccccc2n1-c1ccccc1`, the negative logarithm of the EC50 (pEC50) was 5.00.

As to `CCOC(=O)c1cc2ccccc2n1CCN(CC)CC`, the EC50 is > 20 µM (inactive).

Turning to `CCOc1ccccc1N(CC(=O)N1CCOCC1)S(=O)(=O)c1ccc(OC)cc1`, the pEC50 is 5.23.

Take `CC(=O)Nc1ccc(Sc2ncccc2C(=O)Nc2ccc(Br)cc2)cc1`: the pEC50 is 4.81.

`COc1ccccc1N(CC(=O)N1CCOCC1)S(=O)(=O)c1ccccc1`: the EC50 is > 20 µM (inactive).

In the case of `COc1ccc(NC(=O)c2cccnc2Sc2ccc(NC(C)=O)nc2)cc1`, the EC50 was > 20 µM (inactive).

Regarding `CCOc1ccccc1N(CC(=O)N1CCOCC1)S(=O)(=O)c1cc(C(=O)OC)ccc1OC`, the EC50 was > 20 µM (inactive).

Turning to `CCOc1ccc(N(CC(=O)N2CCOCC2)S(=O)(=O)c2ccc(SC)cc2)cc1`, the EC50 was > 20 µM (inactive).

Regarding `Cc1[nH]n(-c2cccc(Cl)c2)c(=O)c1-c1ccc(Cl)cc1`, the EC50 was > 20 µM (inactive).

As to `CC(=O)Nc1ccc(Sc2ncccc2C(=O)Nc2ccc(OC(F)(F)F)cc2)cn1`, the pEC50 is 5.27.

On to `CCOc1ccccc1N(CC(=O)N1CCOCC1)S(=O)(=O)c1ccc(Br)cc1`, for which the pEC50 was 5.82.

For `O=c1c(/C=C(\O)c2ccccc2)nc2ccccc2n1-c1ccccc1`, the pEC50 is 5.09.

Consider `CC1(C(=O)NC(=S)NNC(=O)c2ccncc2)CCCCC1`, for which the pEC50 is 5.23.

Consider `CCOc1ccccc1N(CC(=O)N1CCC(C)CC1)S(=O)(=O)c1ccc(SC)cc1`, for which the EC50 is > 20 µM (inactive).

As to `CCOc1ccccc1N(CC(=O)N1CCOCC1)S(=O)(=O)c1ccc(SC)cc1`, the negative logarithm of the EC50 (pEC50) is 5.83.

With `CC(=O)Nc1ccc(Sc2ncccc2C(=O)Nc2cc(Cl)cc(Cl)c2)cn1`, the EC50 was > 20 µM (inactive).

For `COc1ccc(NC(=O)c2ccccc2Sc2ccc(NC(C)=O)nc2)cc1`, the EC50 is > 20 µM (inactive).

As for `CC(=O)Nc1ccc(Sc2ncccc2C(=O)Nc2ccccc2Br)cc1`, the EC50 was > 20 µM (inactive).

Consider `CC(=O)Nc1ccc(Sc2ncccc2C(=O)Nc2ccc(N(O)O)cc2)cc1`, for which the pEC50 is 5.71.

In the case of `O=C(CC1CCCCC1)c1c(O)c2ccccc2oc1=O`, the pEC50 was 5.25.

Turning to `O=C(COC(=O)[C@H](Cc1ccccc1)NC(=O)c1ccco1)NCc1ccccc1`, the pEC50 was 4.95.

Consider `CCOc1ccccc1N(CC(=O)N1CCOCC1)S(=O)(=O)c1cccc(Br)c1`, for which the pEC50 is 5.84.

Take `Cc1cc(=O)[nH]c(SCC(=O)Nc2ccc(Br)cc2)c1C#N`: the EC50 is > 20 µM (inactive).

Take `Cc1ccccc1N(CC(=O)N1CCOCC1)S(=O)(=O)c1ccc(Cl)cc1`: the EC50 is > 20 µM (inactive).

`CC(=O)Nc1ccc(Sc2ncccc2C(=O)Nc2cccc(OC(F)(F)F)c2)cc1`: the EC50 is > 20 µM (inactive).

As for `O=[N+]([O-])c1ccc(O)c(Nc2ncnc3ccc(Br)cc23)c1`, the EC50 was > 20 µM (inactive).

`CC1(C)C(=O)OC(c2cccn2-c2ccc([N+](=O)[O-])cc2)C2(CCCCC2)C1=O` (centres undefined): the EC50 is > 20 µM (inactive).

Take `N#Cc1c(-c2ccccc2)cc(-c2ccccc2)nc1SCC(=O)NCC(=O)O`: the EC50 was > 20 µM (inactive).

Turning to `CCc1ccccc1N(CC(=O)N1CCOCC1)S(=O)(=O)c1ccc(C)cc1`, the EC50 is > 20 µM (inactive).

Take `COc1ccccc1N(CC(=O)N1CCOCC1)S(=O)(=O)c1ccc(C)cc1`: the EC50 was > 20 µM (inactive).

In the case of `CCOc1cccc(N(CC(=O)N2CCOCC2)S(=O)(=O)c2ccc(OC)cc2)c1`, the EC50 was > 20 µM (inactive).

With `CC(=O)Nc1ccc(Sc2ccccc2C(=O)Nc2ccc(F)cc2)cn1`, the EC50 was > 20 µM (inactive).

Take `CCOc1ccccc1N(CC(=O)N1CCCCC1)S(=O)(=O)c1ccc(SC)cc1`: the negative logarithm of the EC50 (pEC50) is 6.33.

Turning to `CC(=O)Nc1cccc(OC(=O)c2ccoc2C)c1`, the pEC50 is 5.03.

`O=C(NC(=O)c1ccccc1O)c1ccc(C(F)(F)F)cc1`: the negative logarithm of the EC50 (pEC50) is 4.87.

For `O=C(CCn1c2c(c3ccccc31)CCCC2)NNC(=O)c1ccccc1C(=O)O`, the EC50 is > 20 µM (inactive).

`COc1ccc(C)cc1NC(=O)c1cccnc1Sc1ccc(NC(C)=O)cc1`: the EC50 is > 20 µM (inactive).

For `CCCCCn1nc(-c2ccccc2)c2nc3ccccc3nc21`, the pEC50 is 5.50.

As for `O=C(Nc1ccc(Br)cc1Cl)c1ccc2c(=O)n3c(nc2c1)CCC3`, the EC50 was > 40 µM (inactive).

Turning to `CCOc1ccccc1N(CC(=O)N1CCOCC1)S(=O)(=O)c1ccc(C)cc1`, the pEC50 was 5.55.

For `CCOc1ccccc1N(CC(=O)N1CCOCC1)S(=O)(=O)c1ccccc1`, the pEC50 was 5.32.

In the case of `CCOc1ccccc1N(CC(=O)N1CCCC1)S(=O)(=O)c1ccc(SC)cc1`, the EC50 is > 20 µM (inactive).

Consider `CC(=O)Nc1ccc(Sc2ncccc2C(=O)Nc2ccc(C(F)(F)F)cc2)cc1`, for which the EC50 is > 20 µM (inactive).

With `CCC1CCCCN1Cc1ccc(OC)c(C)c1` (centres undefined), the EC50 was > 20 µM (inactive).

Turning to `CCOc1ccccc1N(CC(=O)N1CCCCCC1)S(=O)(=O)c1ccc(SC)cc1`, the EC50 was > 20 µM (inactive).

With `O=C1Nc2ccccc2N(O)N1c1cc(-c2cccc(Cl)c2)no1`, the EC50 was > 20 µM (inactive).

With `CCOc1ccccc1N(CC(=O)N1CCOCC1)S(=O)(=O)c1ccccc1C#N`, the EC50 was > 20 µM (inactive).

As for `CCOc1ccccc1N(CC(=O)N1CCOCC1)S(=O)(=O)c1cccc(OC)c1`, the pEC50 is 5.44.

On to `CCOc1ccc(S(=O)(=O)N(CC(=O)N2CCOCC2)c2ccccc2)cc1`, for which the EC50 is > 20 µM (inactive).

Turning to `CC(=O)Nc1ccc(Sc2ncccc2C(=O)Nc2ccc(F)cc2)cn1`, the pEC50 was 6.02.

For `O=C(Nc1cc(S(=O)(=O)N2CCCCC2)ccc1O)c1ccccc1NS(=O)(=O)c1ccc(F)c(F)c1`, the EC50 was > 20 µM (inactive).

With `COc1ccc(C)cc1N(CC(=O)N1CCOCC1)S(=O)(=O)c1ccccc1`, the pEC50 was 4.97.

As to `Oc1ccc2ccccc2c1CN1CCCCC1`, the EC50 is > 20 µM (inactive).

As for `CCNC(=S)NNC(=O)c1cccn(Cc2ccc(Cl)cc2Cl)c1=O`, the EC50 was > 20 µM (inactive).

Values taken from PubChem BioAssay AID651648 (Sanford-Burnham Center for Chemical Genomics, 2012).
